Laboratory results as given in article PMC7496286, “The Selectivity of Fosfosal for STAT5b over STAT5a is Mediated by Arg566 in the Linker Domain” (Chembiochem, 2020).
Changes are numbered by the printed parent chain.

Legend:
[1] = biological target: T1, STAT5a Trp566Arg/Lys644Met (Homo sapiens, UniProt P42229, K644M/W566R); test: FP-based competitive binding assay, STAT5a Trp566Arg/Lys644Met
T1 construct: His; made in house
T1 sequence (P42229 1-794 W566R/K644M): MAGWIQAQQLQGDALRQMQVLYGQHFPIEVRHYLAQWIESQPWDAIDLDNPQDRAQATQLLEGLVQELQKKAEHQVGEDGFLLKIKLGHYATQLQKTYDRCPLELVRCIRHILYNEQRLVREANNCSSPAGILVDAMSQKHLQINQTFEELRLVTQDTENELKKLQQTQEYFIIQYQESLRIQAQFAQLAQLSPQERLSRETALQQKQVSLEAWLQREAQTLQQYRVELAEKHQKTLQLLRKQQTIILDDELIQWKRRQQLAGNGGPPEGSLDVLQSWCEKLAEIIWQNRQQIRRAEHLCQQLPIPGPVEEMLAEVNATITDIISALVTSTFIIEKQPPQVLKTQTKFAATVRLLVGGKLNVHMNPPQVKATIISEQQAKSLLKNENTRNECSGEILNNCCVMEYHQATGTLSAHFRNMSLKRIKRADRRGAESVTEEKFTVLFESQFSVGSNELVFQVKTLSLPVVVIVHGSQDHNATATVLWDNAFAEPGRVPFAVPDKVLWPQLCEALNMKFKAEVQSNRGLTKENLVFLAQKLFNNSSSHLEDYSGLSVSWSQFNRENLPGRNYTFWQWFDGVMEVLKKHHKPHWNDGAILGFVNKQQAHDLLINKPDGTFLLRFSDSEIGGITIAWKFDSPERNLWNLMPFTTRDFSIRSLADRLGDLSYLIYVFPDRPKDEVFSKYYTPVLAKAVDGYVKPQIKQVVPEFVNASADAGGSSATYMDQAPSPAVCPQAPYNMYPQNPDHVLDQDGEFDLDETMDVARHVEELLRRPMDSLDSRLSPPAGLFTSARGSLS
Procedure: (§1) Fluorescence polarization assays
(§2) The ability of test compounds to displace 5-carboxyfluorescein-GY(PO3H2)LVLDKW (final concentration: 10 nM) from the SH2 domain of STAT5a/b proteins was analyzed. Proteins […]
(§3) was applied in dilution series comprising the following concentrations: 0.024 – 200 µM […]
(§4) and 0.146 – 600 µM (STAT5b Arg566Glu), respectively. The assays were performed in buffer containing 10 mM Tris, 50 mM NaCl, 1 mM DTT, 1 mM EDTA and 0.1% (v/v) NP-40. Fosfosal was dissolved in DMSO. STAT5a/b proteins and fosfosal were incubated at room temperature for 1 h before adding peptide. Samples were transferred to 384-well microtiter plates and fluorescence polarization was read after a further 1 h incubation time. All measurements were performed in triplicate (n=3), except for STAT5b (n=6) and STAT5a Trp566Arg (n=4). Percent binding was calculated based on a logarithmic curve fit using OriginPro 8G software. IC50 values were converted to Ki values using the published equation.[4] […]
(§5) [4] Z. Nikolovska-Coleska, R. Wang, X. Fang, H. Pan, Y. Tomita, P. Li, P. P. Roller, K.
(§6) Krajewski, N. G. Saito, J. A. Stuckey, S. Wang, Anal. Biochem. 2004, 332, 261-273.

STAT5a SH2 domain = biological target: T2, STAT5a SH2 domain (Homo sapiens, UniProt P42229); test: FP-based competitive binding assay, wild-type STAT5a
T2 construct: His; made in house
T2 sequence (P42229 1-794): T1 sequence (P42229 1-794 W566R/K644M) with R566W, M644K
Procedure: as §1, §2, §3, §4, §5, §6

STAT5b Met644Lys = biological target: T3, STAT5b Met644Lys (Homo sapiens, UniProt P51692, M644K); test: FP-based competitive binding assay, STAT5b Met644Lys
T3 construct: His; made in house
T3 sequence (P51692 1-787 M644K): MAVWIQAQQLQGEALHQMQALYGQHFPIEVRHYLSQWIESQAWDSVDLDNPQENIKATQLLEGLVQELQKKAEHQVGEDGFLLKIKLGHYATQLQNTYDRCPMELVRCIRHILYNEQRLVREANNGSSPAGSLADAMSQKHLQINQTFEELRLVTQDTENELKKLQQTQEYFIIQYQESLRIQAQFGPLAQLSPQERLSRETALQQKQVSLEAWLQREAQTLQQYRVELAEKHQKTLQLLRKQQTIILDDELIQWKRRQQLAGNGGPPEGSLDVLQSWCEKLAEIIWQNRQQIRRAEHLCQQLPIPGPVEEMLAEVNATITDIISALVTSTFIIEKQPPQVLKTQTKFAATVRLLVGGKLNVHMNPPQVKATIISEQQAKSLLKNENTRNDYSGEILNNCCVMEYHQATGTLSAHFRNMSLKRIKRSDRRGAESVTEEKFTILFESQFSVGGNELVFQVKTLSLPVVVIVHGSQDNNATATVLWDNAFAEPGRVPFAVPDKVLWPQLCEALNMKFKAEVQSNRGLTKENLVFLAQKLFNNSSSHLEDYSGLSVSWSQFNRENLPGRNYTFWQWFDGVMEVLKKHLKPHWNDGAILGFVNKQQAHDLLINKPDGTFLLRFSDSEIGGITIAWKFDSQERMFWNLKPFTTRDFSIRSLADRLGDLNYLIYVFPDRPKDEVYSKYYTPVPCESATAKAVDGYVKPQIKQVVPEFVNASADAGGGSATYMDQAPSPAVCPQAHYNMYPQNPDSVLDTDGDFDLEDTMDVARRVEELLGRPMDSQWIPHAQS
Procedure: as §1, §2, §3, §4, §5, §6

| Compound | Kd [1] [µM] | Kd (STAT5a SH2 domain) [µM] | Kd (STAT5b Met644Lys) [µM] | IC50 ([1]; STAT5a Trp566Arg/Lys644Met) [µM] | Ki ([1]; STAT5a Trp566Arg/Lys644Met, Ki calculated from IC50) [µM] | IC50 (STAT5a SH2 domain; wild-type STAT5a) [µM] | Ki (STAT5a SH2 domain; wild-type STAT5a, Ki calculated from IC50 with published equation) [µM] | IC50 (STAT5b Met644Lys; STAT5b Met644Lys) [µM] | Ki (STAT5b Met644Lys; STAT5b Met644Lys, Ki calculated from IC50) [µM] |
| --- | --- | --- | --- | --- | --- | --- | --- | --- | --- |
| CC(C)C[C@H](NC(=O)[C@H](Cc1ccc(OP(=O)(O)O)cc1)NC(=O)CNC(=O)c1ccc2c(c1)C(=O)OC21c2ccc(O)cc2Oc2cc(O)ccc21)C(=O)N[C@H](C(=O)N[C@@H](CC(C)C)C(=O)N[C@@H](CC(=O)O)C(=O)N[C@@H](CCCCN)C(=O)N[C@@H](Cc1c[nH]c2ccccc12)C(=O)O)C(C)C [5-carboxyfluorescein-GY(PO3H2)LVLDKW] | 0.08 | 0.147 | 0.026 | – | – | – | – | – | – |
| O=C(O)c1ccccc1OP(=O)(O)O [fosfosal, O‐phosphorylated salicylic acid] | – | – | – | 24.5 ± 1.4 | 12.3 ± 0.6 | 299 ± 17 | 148 ± 9 | 36.6 ± 2 | 17.2 ± 0.9 |
